Assay results as given in patent US20210196714A1, “COMPOSITIONS AND METHODS FOR TREATING DISORDERS CHARACTERIZED WITH ABERRANT RAS/MAPK SIGNALING” (Duke University, priority 2018, published 2021).
“Also recorded” adds a separate entry of the source.

Experiments:
[1] = test system: zebrafish kmt2d morphants; test: Jaw defect (MK-CH cartilage distance, Alcian blue) in kmt2d morphants; format: in vivo; details: for jaw defect, distance between MK and CH cartilages: 100 nM, 5 dpf
Experimental: To test the first criterion, the CE rescue paradigm was repeated four times by two different investigators, each using independent zebrafish adult stocks.
Morpholinos (MO) were obtained from Gene Tools (Gene Tools, LLC, Philomath, Oreg., USA) and have been described previously (see, Bogershausen, N. et al. J Clin Invest 125, 3585-99 (2015)); kmt2d-MO: 5′-[…]-3′(SEQ ID NO: 1) (5 ng); kdm6a-MO: 5′-[…] (SEQ ID NO: 2) (10 ng). kmt2d-MO and kdm6a-MO was injected into wild type (WT) Ekkwill (EK) zebrafish embryos obtained from natural matings at the 1-4 cell stage. CRISPR target sequences (rap1a: 5′-[…]-3′ (SEQ ID NO: 3) [120 pg], rap1b: 5′-[…]-3′ (SEQ ID NO: 4) [120 pg] (see, Bogershausen, N. et al. J Clin Invest 125, 3585-99 (2015)), and kmt2d: 5′-[…] (SEQ ID NO: 5) [50 pg]) were identified by crispr.mit.edu and cloned into pT7-gRNA (Addgene, Cambridge, USA) following the protocol described in http://www.addgene.org/crispr/Chen/. Guide (g)RNAs were synthesized using the T7 MEGAshortscript kit (ThermoFisher Scientific). An injection solution of gRNA plus 100 pg Cas9 protein (PNA Bio) was injected into wild type Ekkwill (EK) zebrafish embryos obtained from natural matings at the 1-cell stage. Embryos were treated with compound at the 8-cell stage. All compounds were dissolved in dimethyl sulfoxide (DMSO; 10 mM), and subsequently diluted with water to 100 μM. Using egg water, we then diluted the 100 μM solution to the concentration specific to each experiment in egg water. Embryos were incubated at 28.5° C. and egg water containing compound was replaced daily until phenotyping, mass spectrometry, or immunoblotting analysis.
For convergence and extension (CE) phenotyping, embryos were scored as described (see, Leitch, C. C. et al. Nat Genet 40, 443-8 (2008)) at the 8-10 somite stage, and images were captured using an AZ100 microscope and NIS Elements software (Nikon). To assess mandibular phenotypes, Alcian blue staining was used to stain cartilage structures in 5 dpf larvae as described (see, Chassaing, N. et al. J Med Genet 49, 373-9 (2012)). Stained larvae were imaged in glycerol using an SMZ745T stereomicroscope (Nikon). The distance between Meckel's (MK) and ceratohyal (CH) cartilages was measured on ventral bright field images with Image J (NIH). For brain cell proliferation assays, injected embryos were fixed in Dent's solution at 2 dpf. […] Fluorescence signal on embryo heads was imaged with the Nikon AZ100 microscope and DS-Qi1MC digital camera using […] Z-stacks to generate extended depth of focus images. Cell numbers were quantified using the ImageJ ICTN plugin (NIH). […]

[2] = Mass spectrometry of compound exposure in zebrafish embryos; format: in vivo; details: for detection of compound in embryos by MS: bathing, 100 nM or 1 μM, five days
Experimental: FIG. 5: Successful delivery of small molecules into zebrafish embryos. (a) Experimental design and sample preparation for the mass spectrometry (MS) analysis of compound concentration. (b) Quantitative MS analysis results of compound exposure in embryos. The right-most two columns give the concentrations of each compound detected by MS in zebrafish, quantifying in vivo exposures resulting from egg water compound doses of 100 nM and 1 μM.
For this purpose, mass spectrometry (MS) was performed in embryos treated with each of compounds 2 and 8. Wild-type embryos were treated with 100 nM (the concentration used for the rescue experiments) or 1 μM (as a positive detection threshold given that the intracellular concentration of each compound is unknown at the beginning of the experiment). After five days of treatment, embryos were harvested and subjected to MS analysis (FIG. 5A).
WT EK embryos were transferred to a 12-well plate at the 8-cell stage and bathed in egg water containing 0.001% DMSO or 100 nM of each compound (n=30/condition). Embryos were incubated at 28° C.; egg water containing compound was refreshed every 24 hours until harvest. Compound exposure was assessed essentially as described (see, Berghmans, S. et al. J Pharmacol Toxicol Methods 58, 59-68 (2008)); larvae were anaesthetized on ice, washed once with fresh compound-free ice-cold egg water, washed once with ice-cold PBS, and then transferred to a microfuge tube and centrifuged briefly before removing all excess liquid. Samples were macerated using a plastic pestle and frozen at −20° C. prior to analysis. Mass spectrometry analysis was conducted at Covance Laboratories (Cary, N.C., USA). Briefly, the macerated larvae were diluted in 1 ml water/acetonitrile (50/50), sonicated for 3×10 s and vortexed. For all compounds, a control sample containing embryos exposed to 0.001% DMSO was analyzed as a control. Calibration curves were generated by spiking aliquots of control zebrafish homogenate (prepared as described above) with known amounts of compound 29 (N3521-4-2).

Structure (SMILES)	jaw defect, distance between MK and CH cartilages [1]	detection of compound in embryos by MS [2]	jaw defect, distance between MK and CH cartilages ([1]; listed as dmDf)	jaw rescue at dosages beyond 100 nM ([1]; dose response, above 100 nM up to 1 μM)	exposure of inhibitor in embryos (MS quantitation) ([2]; 100 nM dose)	concentration at 5 days ([2]; EK (wild-type), zebrafish, whole embryo/larva homogenate, other: bathing in egg water containing compound, egg water dose 100 nM, read-out: effective in vivo exposure (MS)) [nM]
CC[C@@H](CO)Nc1ncc(C)c(-c2c[nH]c(C(=O)N[C@H](CO)c3cccc(Cl)c3)c2)n1 [Compound 2, N-((S)-1-(3-chlorophenyl)-2-hydroxyethyl)-4-(2-(((S)-1-hydroxybutan-2-yl)amino)-5-methylpyrimidin-4-yl)-1H-pyrrole-2-carboxamide]	ameliorates this defect; also recorded: rescue significantly	Detectable concentrations				
CC(C)c1nc(-c2cccc(NS(=O)(=O)c3c(F)cccc3F)c2F)c(-c2ccnc(N)n2)s1 [Compound 8, desmethyl-Dabrafenib]	ameliorates this defect; also recorded: rescue significantly	Detectable concentrations	able to rescue the jaw layout	higher dosages did not improve efficacy any further	sub-nanomolar	0.26
